17 molecules from US11673910B2, “Macrolides with modified desosamine sugars and uses thereof” (Zikani Therapeutics, Inc., priority 2017, dated 2023) can be followed below.

≈ marks a conversion by molar mass, not a printed value. Where only a bound is given, the exact number is not on record here.

Holding throughout (type): cell-based
The test system of one experiment is E. coli strain MP-4. Put plainly: Broth dilution MIC determination (CLSI) against E. coli strain MP-4. The following applies: Escherichia coli, MP4. The gist of the method:
(§1)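 Growth inhibition endpoint determined under CLSI broth dilution conditions. Categorical MIC output in mg/L: +++ (≤4), ++ (≥8, <32), + (≥32).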

The subject of experiment [1] is K. pneumoniae strain MP-548. Put plainly: Broth dilution MIC determination (CLSI) against K. pneumoniae strain MP-548. The following applies: Klebsiella pneumoniae, MP548. Summed up: as §1
For experiment [2], the system named is P. aeruginosa strain MP-3. Put plainly: Broth dilution MIC determination (CLSI) against P. aeruginosa strain MP-3. To be noted: Pseudomonas aeruginosa, MP3. Summed up: as §1
On the technique in general: Dilution methods test growth across graded concentrations, often in twofold steps.

The subject of experiment [3] is A. baumannii strain MP-15. Kind of experiment: Broth dilution MIC determination (CLSI) against A. baumannii strain MP-15. The following applies: Acinetobacter baumannii, MP15. Summed up:
as §1

The next experiment deals with S. aureus strain MP-12. Put plainly: Broth dilution MIC determination (CLSI) against S. aureus strain MP-12. The following applies: Staphylococcus aureus, MP12, strain MP-12. Summed up:
as §1

In general, MIC refers to the lowest concentration that inhibits growth of the organism. Take `CC[C@H]1OC(=O)C(C)C(=O)[C@H](C)[C@@H](OC2OC(CN(C)CCOC)CC(N(C)C)C2O)[C@](C)(OC)C[C@@H](C)CN[C@H](C)[C@H]2NC(=O)O[C@@]21C` (stereo partly shown) [Compound 131, 3-Descladinosyl-3-oxo-6-O-methyl-N9a-desmethyl-11,12-dideoxy-12,11-(oxycarbonylimino)-6′-[N-(methyl)-2-methoxyethylamino]Azithromycin]: the MIC in the experiment on E. coli strain MP-4 was ≤ 4 µg/mL; in experiment [1] it was 8 to 32 µg/mL (≈ 11.4 to 45.7 µM); in experiment [2], ≥ 32 µg/mL; in experiment [3] it was ≥ 32 µg/mL; in the experiment on S. aureus strain MP-12, ≥ 32 µg/mL.

With `CC[C@H]1OC(=O)C(C)C(=O)[C@H](C)[C@@H](OC2OC(CN3CCOCC3)CC(N(C)C)C2O)[C@](C)(OC)C[C@@H](C)CN[C@H](C)[C@H]2NC(=O)O[C@@]21C` (stereo partly shown) [Compound 132, 3-Descladinosyl-3-oxo-6-O-methyl-N9a-desmethyl-11,12-dideoxy-12,11-(oxycarbonylimino)-6′-(1-morpholino) Azithromycin], the MIC against E. coli strain MP-4 was ≤ 4 µg/mL; in experiment [1] it was 8 to 32 µg/mL (≈ 11.4 to 45.8 µM); in experiment [2], ≥ 32 µg/mL; in experiment [3], ≥ 32 µg/mL; with S. aureus strain MP-12, 8 to 32 µg/mL (≈ 11.4 to 45.8 µM).

Regarding `CC[C@H]1OC(=O)C(C)C(=O)[C@H](C)[C@@H](OC2OC(CNC3(C)CC3)CC(N(C)C)C2O)[C@](C)(OC)C[C@@H](C)CN[C@H](C)[C@H]2NC(=O)O[C@@]21C` (stereo partly shown) [Compound 133, 3-Descladinosyl-3-oxo-6-O-methyl-N9a-desmethyl-11,12-dideoxy-12,11-(oxycarbonylimino)-6′-(1-methyl-1-cyclopropylamino) Azithromycin], the MIC in the experiment on E. coli strain MP-4 is ≤ 4 µg/mL; in experiment [1], 8 to 32 µg/mL (≈ 11.7 to 46.9 µM); in experiment [2] it was ≥ 32 µg/mL; in experiment [3], 8 to 32 µg/mL (≈ 11.7 to 46.9 µM); in the experiment with S. aureus strain MP-12, 8 to 32 µg/mL (≈ 11.7 to 46.9 µM).

For the molecule `CC[C@H]1OC(=O)C(C)C(=O)[C@H](C)[C@@H](OC2OC(CN[C@@H]3C[C@H]3C)CC(N(C)C)C2O)[C@](C)(OC)C[C@@H](C)CN[C@H](C)[C@H]2NC(=O)O[C@@]21C` (stereo partly shown) [Compound 134, 3-Descladinosyl-3-oxo-6-O-methyl-N9a-desmethyl-11,12-dideoxy-12,11-(oxycarbonylimino)-6′-((1″R,2″R)-2″-methylcyclopropyl)amino Azithromycin], the MIC in the experiment on E. coli strain MP-4 was ≤ 4 µg/mL; in experiment [1], ≤ 4 µg/mL; in experiment [2], ≥ 32 µg/mL; in experiment [3], 8 to 32 µg/mL (≈ 11.7 to 46.9 µM); against S. aureus strain MP-12 it was ≥ 32 µg/mL.

With `CC[C@H]1OC(=O)C(C)C(=O)[C@H](C)[C@@H](OC2OC(CN3CCCCC34CC4)CC(N(C)C)C2O)[C@](C)(OC)C[C@@H](C)CN[C@H](C)[C@H]2NC(=O)O[C@@]21C` (stereo partly shown) [Compound 135, 3-Descladinosyl-3-oxo-6-O-methyl-N9a-desmethyl-11,12-dideoxy-12,11-(oxycarbonylimino)-6′-(4″-azaspiro[2″.5″]octanyl)amino Azithromycin], the MIC was ≤ 4 µg/mL against E. coli strain MP-4; 8 to 32 µg/mL (≈ 11.1 to 44.3 µM) in experiment [1]; ≥ 32 µg/mL in experiment [2]; ≤ 4 µg/mL in experiment [3]; 8 to 32 µg/mL (≈ 11.1 to 44.3 µM) against S. aureus strain MP-12.

In the case of `CC[C@H]1OC(=O)C(C)C(=O)[C@H](C)[C@@H](OC2OC(CNCC(F)F)CC(N(C)C)C2O)[C@](C)(OC)C[C@@H](C)CN[C@H](C)[C@H]2NC(=O)O[C@@]21C` (stereo partly shown) [Compound 136, 3-Descladinosyl-3-oxo-6-O-methyl-N9a-desmethyl-11,12-dideoxy-12,11-(oxycarbonylimino)-6′-difluoroethylamino Azithromycin], the MIC is ≤ 4 µg/mL with E. coli strain MP-4; 8 to 32 µg/mL (≈ 11.5 to 46.2 µM) in experiment [1]; ≥ 32 µg/mL in experiment [2]; ≥ 32 µg/mL in experiment [3]; 8 to 32 µg/mL (≈ 11.5 to 46.2 µM) against S. aureus strain MP-12.

For `CC[C@H]1OC(=O)C(C)C(=O)[C@H](C)[C@@H](OC2OC(CN3CC4CC4C3)CC(N(C)C)C2O)[C@](C)(OC)C[C@@H](C)CN[C@H](C)[C@H]2NC(=O)O[C@@]21C` (stereo partly shown) [Compound 137, 3-Descladinosyl-3-oxo-6-O-methyl-N9a-desmethyl-11,12-dideoxy-12,11-(oxycarbonylimino)-6′-azabicyclo[3.1.0]hexan-3″-ylamino Azithromycin], the MIC was ≤ 4 µg/mL against E. coli strain MP-4; 8 to 32 µg/mL (≈ 11.5 to 46 µM) in experiment [1]; ≥ 32 µg/mL in experiment [2]; 8 to 32 µg/mL (≈ 11.5 to 46 µM) in experiment [3]; ≥ 32 µg/mL in the experiment with S. aureus strain MP-12.

Turning to `CC[C@H]1OC(=O)C(C)C(=O)[C@H](C)[C@@H](OC2OC(CN3CCC(C)(C)CC3)CC(N(C)C)C2O)[C@](C)(OC)C[C@@H](C)CN[C@H](C)[C@H]2NC(=O)O[C@@]21C` (stereo partly shown) [Compound 138, 3-Desdadinosyl-3-oxo-6-O-methyl-N9a-desmethyl-11,12-dideoxy-12,11-(oxycarbonylimino)-6′-(4″,4″-dimethylpiperidin-1-yl) Azithromycin], the MIC was ≤ 4 µg/mL against E. coli strain MP-4; ≥ 32 µg/mL in experiment [1]; ≥ 32 µg/mL in experiment [2]; ≥ 32 µg/mL in experiment [3]; ≥ 32 µg/mL in the experiment on S. aureus strain MP-12.

Take `CC[C@H]1OC(=O)C(C)C(=O)[C@H](C)[C@@H](OC2OC(CN3CC(F)(F)C3)CC(N(C)C)C2O)[C@](C)(OC)C[C@@H](C)CN[C@H](C)[C@H]2NC(=O)O[C@@]21C` (stereo partly shown) [Compound 139, 3-Descladinosyl-3-oxo-6-O-methyl-N9a-desmethyl-11,12-dideoxy-12,11-(oxycarbonylimino)-6′-(3″,3″-difluoroazetidinyl) Azithromycin]: the MIC against E. coli strain MP-4 is ≤ 4 µg/mL; in experiment [1], 8 to 32 µg/mL (≈ 11.3 to 45.4 µM); in experiment [2], ≥ 32 µg/mL; in experiment [3], 8 to 32 µg/mL (≈ 11.3 to 45.4 µM); against S. aureus strain MP-12, 8 to 32 µg/mL (≈ 11.3 to 45.4 µM).

On to `CC[C@H]1OC(=O)C(C)C(=O)[C@H](C)[C@@H](OC2OC(CNCCS(C)(=O)=O)CC(N(C)C)C2O)[C@](C)(OC)C[C@@H](C)CN[C@H](C)[C@H]2NC(=O)O[C@@]21C` (stereo partly shown) [Compound 140, 3-Descladinosyl-3-oxo-6-O-methyl-N9a-desmethyl-11,12-dideoxy-12,11-(oxycarbonylimino)-6′-2″-(methylsulfonyl)ethan-1″-amino Azithromycin], for which the MIC (with E. coli strain MP-4; in experiment [1]; in experiment [2]; in experiment [3]; in the experiment with S. aureus strain MP-12) was ≥ 32 µg/mL each time.

In the case of `CC[C@H]1OC(=O)C(C)C(=O)[C@H](C)[C@@H](OC2OC(CNC34CC(C3)C4)CC(N(C)C)C2O)[C@](C)(OC)C[C@@H](C)CN[C@H](C)[C@H]2NC(=O)O[C@@]21C` (stereo partly shown) [Compound 141, 3-Descladinosyl-3-oxo-6-O-methyl-N9a-desmethyl-11,12-dideoxy-12,11-(oxycarbonylimino)-6′-(bicyclo[1.1.1]pentanylamino) Azithromycin], the MIC in the experiment on E. coli strain MP-4 is ≤ 4 µg/mL; in experiment [1] it was ≤ 4 µg/mL; in experiment [2], ≥ 32 µg/mL; in experiment [3] it was 8 to 32 µg/mL (≈ 11.5 to 46 µM); against S. aureus strain MP-12, 8 to 32 µg/mL (≈ 11.5 to 46 µM).

On to `CC[C@H]1OC(=O)C(C)C(=O)[C@H](C)[C@@H](OC2OC(CNCCC(F)(F)F)CC(N(C)C)C2O)[C@](C)(OC)C[C@@H](C)CN[C@H](C)[C@H]2NC(=O)O[C@@]21C` (stereo partly shown) [Compound 142, 3-Descladinosyl-3-oxo-6-O-methyl-N9a-desmethyl-11,12-dideoxy-12,11-(oxycarbonylimino)-6′-trifluoropropylamino Azithromycin], for which the MIC is ≤ 4 µg/mL with E. coli strain MP-4; 8 to 32 µg/mL (≈ 11 to 44.1 µM) in experiment [1]; ≥ 32 µg/mL in experiment [2]; ≥ 32 µg/mL in experiment [3]; 8 to 32 µg/mL (≈ 11 to 44.1 µM) against S. aureus strain MP-12.

Consider `CC[C@H]1OC(=O)C(C)C(=O)[C@H](C)[C@@H](OC2OC(CN3CC(F)C3)CC(N(C)C)C2O)[C@](C)(OC)C[C@@H](C)CN[C@H](C)[C@H]2NC(=O)O[C@@]21C` (stereo partly shown) [Compound 143, 3-Descladinosyl-3-oxo-6-O-methyl-N9a-desmethyl-11,12-dideoxy-12,11-(oxycarbonylimino)-6′-(3″-fluoroazetidin-1″-yl) Azithromycin], for which the MIC against E. coli strain MP-4 is ≤ 4 µg/mL; in experiment [1], 8 to 32 µg/mL (≈ 11.6 to 46.6 µM); in experiment [2], ≥ 32 µg/mL; in experiment [3], ≥ 32 µg/mL; against S. aureus strain MP-12, 8 to 32 µg/mL (≈ 11.6 to 46.6 µM).

As for `CC[C@H]1OC(=O)C(C)C(=O)[C@H](C)[C@@H](OC2OC(CN3CCC(F)(F)CC3)CC(N(C)C)C2O)[C@](C)(OC)C[C@@H](C)CN[C@H](C)[C@H]2NC(=O)O[C@@]21C` (stereo partly shown) [Compound 144, 3-Descladinosyl-3-oxo-6-O-methyl-N9a-desmethyl-11,12-dideoxy-12,11-(oxycarbonylimino)-6′-(4″,4″-difluoropiperidin-1″-yl) Azithromycin], the MIC in the experiment with E. coli strain MP-4 is ≤ 4 µg/mL; in experiment [1], 8 to 32 µg/mL (≈ 10.9 to 43.7 µM); in experiment [2], ≥ 32 µg/mL; in experiment [3], 8 to 32 µg/mL (≈ 10.9 to 43.7 µM); against S. aureus strain MP-12 it was 8 to 32 µg/mL (≈ 10.9 to 43.7 µM).

With `CC[C@H]1OC(=O)C(C)C(=O)[C@H](C)[C@@H](OC2OC(CN(C)OC)CC(N(C)C)C2O)[C@](C)(OC)C[C@@H](C)CN[C@H](C)[C@H]2NC(=O)O[C@@]21C` (stereo partly shown) [Compound 145], the MIC was 8 to 32 µg/mL (≈ 11.9 to 47.6 µM) against E. coli strain MP-4; 8 to 32 µg/mL (≈ 11.9 to 47.6 µM) in experiment [1]; ≥ 32 µg/mL in experiment [2]; ≥ 32 µg/mL in experiment [3]; ≥ 32 µg/mL against S. aureus strain MP-12.

With `CO[C@]1(C)C[C@@H](C)CN[C@H](C)[C@H]2NC(=O)O[C@]2(C)[C@@H](C)OC(=O)C(C)C(=O)[C@H](C)[C@H]1OC1OC(CNC2CC2)CC(N(C)C)C1O` (stereo partly shown) [Compound 146, 3-Descladinosyl-3-oxo-6-O-methyl-N9a-desmethyl-11,12-dideoxy-12,11-(oxycarbonylimino)-6′-cyclopropylamino-13-methyl Azithromycin], the MIC (with E. coli strain MP-4; in experiment [1]; in experiment [2]; in experiment [3]; in the experiment on S. aureus strain MP-12) was ≥ 32 µg/mL throughout.

For the molecule `CO[C@]1(C)C[C@@H](C)CN[C@H](C)[C@H]2NC(=O)O[C@]2(C)[C@@H](C)OC(=O)C(C)C(=O)[C@H](C)[C@H]1OC1OC(CNC2CCC2)CC(N(C)C)C1O` (stereo partly shown) [Compound 147, 3-Descladinosyl-3-oxo-6-O-methyl-N9a-desmethyl-11,12-dideoxy-12,11-(oxycarbonylimino)-6′-cyclobutylamino-13-methyl Azithromycin], the MIC was 8 to 32 µg/mL (≈ 12 to 47.8 µM) with E. coli strain MP-4; ≥ 32 µg/mL in experiment [1]; ≥ 32 µg/mL in experiment [2]; ≥ 32 µg/mL in experiment [3]; ≥ 32 µg/mL against S. aureus strain MP-12.
